Assay results as given in US8460925B2, “Methods for culturing mammalian taste cells” (priority 2004, dated 2013).

Columns and labels:
cultured taste cells = test: Response of cultured taste cells to taste stimuli by Ca-imaging (fura-2); assay type: cell-based, rat; details: elevation of intracellular calcium
Description: Taste cells employed are isolated as described in Example 1 and cultured for 1 week or 2 months on rat tail collagen type 1-coated coverslips.
(§1) Ca-imaging is performed as follows. The coverslips are incubated for 15-30 minutes with calcium sensitive dye in Modified MHNK ringer's solution (80 mM NaCl, 5 mM KCl, 1 mM MgCl2, 1 mM CaCl2, 1 mM Na-pyruvate, and 20 mM Hepes-Na, pH 7.2 with osmolarity adjusted to 300-310 by 5M NaCl) supplemented with […] (Molecular Probes Inc., Eugene, Oreg.) and 20 mg/ml PLURONIC® F127 (Molecular Probes Inc.). The calcium sensitive dye fura-2 AM is cleaved to fura-2 which is fluorescent and can be detected.
After incubation, coverslips are placed in a recording chamber and continuously bathed with Modified MHNK Ringer's solution that is applied as superfusion.
The stimuli (Denatonium benzoate 2 mM and 0.5 mM, Acesulfame K 250 ppm, Monosodium glutamate (MSG) 3 mM, Cycloheximide 25 μM, Glycine 125 mM, and High K buffer (modified Modified MHNK ringer's solution with 5 mM NaCl, 80 mM KCl, 1 mM MgCl2, 1 mM CaCl2, 1 mM Na-pyruvate, and 20 mM Hepes-Na, pH 7.2 with osmolarity adjusted to 300-310 by 5M NaCl) are applied to the coverslip by switching the superfusion to the stimulus solution, which allows for a complete change of bath solutions in the chamber within 10 seconds.
Calcium imaging recordings are performed using standard imaging techniques as described by Restrepo D., M. Zviman and N. E. Rawson, “The measurement of intracellular calcium in chemosensory cells”, in: Methods in Chemosensory Research, Ed. by A. Spielman and J. Brand. CRC Press, 1995. […] Emitted light from fura-2 in the cells under 200× magnification is filtered at 510 nm and recorded with a cooled CCD camera (Olympix, Perkin Elmer Life Sciences, Bethesda Md.). The excitation wavelength is 340-380 nm and the emission wavelength is 510 nm using a wide band filter. Images are digitalized using a Merlin Imaging Workstation (Perkin Elmer Life Sciences, Bethesda Md.), which controls illuminator, camera, and acquisition, and performs the image ratioing and the display of pseudocolor images.
Stimuli are diluted in Modified MHNK ringer's solution and applied via a gravity-flow superfusion apparatus for about 10-60 seconds, depending on the stimulus. […] Typically several cells are tested.

mouse T2R5 = biological target: T1, mouse T2R5 (Mus musculus, UniProt Q9JKT4); test: Calcium imaging of cultured taste cells transfected with mT2R5; assay type: cell-based
T1 construct: sst (N-terminal export tag; by own knowledge of Bufe et al. 2002, the first 45 residues of rat somatostatin receptor type 3) (N); expressed in transfected cells; host or cells: primary cultured rat taste cells on rat tail collagen-1-coated coverslips
T1 sequence (Q9JKT4 1-300): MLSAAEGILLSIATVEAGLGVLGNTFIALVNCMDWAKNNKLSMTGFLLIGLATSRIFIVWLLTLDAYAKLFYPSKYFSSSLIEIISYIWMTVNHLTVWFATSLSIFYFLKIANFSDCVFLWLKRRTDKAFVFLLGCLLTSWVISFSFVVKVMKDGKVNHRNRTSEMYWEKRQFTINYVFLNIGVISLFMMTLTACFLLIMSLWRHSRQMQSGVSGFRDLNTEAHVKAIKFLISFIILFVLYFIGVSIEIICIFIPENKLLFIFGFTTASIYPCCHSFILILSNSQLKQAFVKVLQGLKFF
Description: as §1
(§2) Calcium imaging recordings are performed using standard imaging techniques as described by Restrepo D., M. Zviman and N. E. Rawson, “The measurement of intracellular calcium in chemosensory cells”, in: Methods in Chemosensory Research, Ed. by A. Spielman and J. Brand. CRC Press, 1995. Illumination is provided by a LSR SPECTRAMASTER monochromator coupled to the microscope. Emitted light from fura-2 in the cells under 200× magnification is filtered at 510 nm and recorded with a cooled CCD camera (Olympix, Perkin Elmer Life Sciences, Bethesda Md.). The excitation wavelength is 340-380 nm and the emission wavelength is 510 nm using a wide band filter. Images are digitalized using a Merlin Imaging Workstation (Perkin Elmer Life Sciences, Bethesda Md.), which controls illuminator, camera, and acquisition, and performs the image ratioing and the display of pseudocolor images. […]

human T2R16 = biological target: T2, human T2R16 (Homo sapiens, UniProt Q9NYV7); test: Calcium imaging of cultured taste cells transfected with hT2R16; assay type: cell-based
T2 construct: expressed in transfected cells; host or cells: primary cultured rat taste cells on rat tail collagen-1-coated coverslips
T2 sequence (Q9NYV7 1-291): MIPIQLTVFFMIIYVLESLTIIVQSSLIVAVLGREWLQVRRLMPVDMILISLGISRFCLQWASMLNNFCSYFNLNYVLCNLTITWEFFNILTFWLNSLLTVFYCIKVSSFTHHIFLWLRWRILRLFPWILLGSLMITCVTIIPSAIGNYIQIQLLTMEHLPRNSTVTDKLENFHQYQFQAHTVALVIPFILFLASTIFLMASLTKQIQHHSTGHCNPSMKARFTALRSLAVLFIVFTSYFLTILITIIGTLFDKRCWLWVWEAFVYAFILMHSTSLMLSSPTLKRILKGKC
Description: as §1, §2

SMILES | activation of cultured taste cells by taste stimulants as shown by calcium imaging (cultured taste cells) | effective concentration for increase in intracellular calcium (mouse T2R5) | effective concentration for increase in intracellular calcium (human T2R16)
CC1=CC(=O)NS(=O)(=O)O1.[K] [Acesulfame K, 6-Methyl-1,2,3-oxathiazin-4(3H)-one 2,2-dioxide potassium salt] | activated |  | 
CC1CC(C)C(=O)C(C(O)CC2CC(=O)NC(=O)C2)C1 (stereo not shown) [Cycloheximide, 3-[2-(3,5-Dimethyl-2-oxocyclohexyl)-2-hydroxyethyl]glutarimide] | activated | 1 µM | 
CC[N+](CC)(CC(=O)Nc1c(C)cccc1C)Cc1ccccc1 [Denatonium, Denatonium benzoate] | activated |  | 
NCC(=O)O [Glycine] | activated |  | 
N[C@@H](CCC(=O)O)C(=O)[O-].[Na+] [MSG, Monosodium glutamate] | activated |  | 
OC[C@H]1O[C@@H](Oc2ccccc2)[C@H](O)[C@@H](O)[C@@H]1O [phenyl-beta-D-glucopyranoside] |  |  | 1 milliM
